This note sets out measurements from ChEMBL document CHEMBL4808172, “Structure-Activity Relationship of Heterocyclic P2Y14 Receptor Antagonists: Removal of the Zwitterionic Character with Piperidine Bioisosteres” (J Med Chem, 2021).

Data set [1] can be described thus: Aqueous solubility of compound at pH 7.4. In kind it is physicochemical. The following applies: buffer.
Data set [2] in a line: Aqueous solubility of compound at pH 4.0. In kind it is physicochemical. The following applies: buffer.
The target of a further data set is Translocator protein (Homo sapiens, UniProt P30536). Nature of the data set: Binding affinity to TSPO (unknown origin).
Translocator protein, sequence (P30536 whole entry): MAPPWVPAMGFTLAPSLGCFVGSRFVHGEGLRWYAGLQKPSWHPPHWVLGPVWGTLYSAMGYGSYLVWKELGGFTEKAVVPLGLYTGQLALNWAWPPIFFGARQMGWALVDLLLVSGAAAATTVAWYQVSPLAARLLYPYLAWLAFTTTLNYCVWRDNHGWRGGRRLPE
The next data set addresses Histamine H1 receptor (Homo sapiens, UniProt P35367). As to the kind of experiment: Binding affinity to H1 receptor (unknown origin).
For data set [3], the target named is T1, liver carboxylesterase (Sus scrofa, UniProt Q29550).
T1 sequence (Q29550 whole entry): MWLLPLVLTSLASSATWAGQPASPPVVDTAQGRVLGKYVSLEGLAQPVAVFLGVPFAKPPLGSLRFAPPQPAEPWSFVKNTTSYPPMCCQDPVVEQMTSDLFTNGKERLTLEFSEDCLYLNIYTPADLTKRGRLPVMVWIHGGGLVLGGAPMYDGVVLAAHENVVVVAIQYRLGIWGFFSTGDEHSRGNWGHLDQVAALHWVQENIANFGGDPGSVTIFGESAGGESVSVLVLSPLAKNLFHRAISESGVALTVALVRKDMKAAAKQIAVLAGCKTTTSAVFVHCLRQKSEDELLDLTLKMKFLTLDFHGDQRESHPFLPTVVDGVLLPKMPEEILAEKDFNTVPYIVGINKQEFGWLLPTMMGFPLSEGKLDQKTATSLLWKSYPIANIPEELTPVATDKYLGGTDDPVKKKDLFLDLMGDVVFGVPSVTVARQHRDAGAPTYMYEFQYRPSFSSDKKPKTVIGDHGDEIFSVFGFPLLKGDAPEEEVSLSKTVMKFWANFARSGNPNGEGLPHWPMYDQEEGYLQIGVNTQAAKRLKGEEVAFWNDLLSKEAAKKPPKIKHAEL
Nature of the data set: Drug metabolism in pH 7.5 HEPES buffer assessed as porcine liver esterase-mediated compound hydrolysis by measuring half life measured up to 72 hrs by HPLC analysis. In kind it is ADME, tissue-based. The following applies: pig.

Data set [4] is described as follows: Stability of compound in aqueous medium after 24 hrs in absence of PLE by HPLC analysis. In kind it is physicochemical. The note with it: buffer.
For data set [5], the target named is T2, Sigma intracellular receptor 2 (Homo sapiens, UniProt Q5BJF2). As to the kind of experiment: Binding affinity to sigma 2 receptor (unknown origin).
T2 sequence (Q5BJF2 whole entry): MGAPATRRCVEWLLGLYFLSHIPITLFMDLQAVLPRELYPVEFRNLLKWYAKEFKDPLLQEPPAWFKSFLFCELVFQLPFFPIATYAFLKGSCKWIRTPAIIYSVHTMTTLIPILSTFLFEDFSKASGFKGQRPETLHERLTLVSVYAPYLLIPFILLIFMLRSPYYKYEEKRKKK
Another data set deals with Mus musculus. As to the kind of experiment: Antiinflammatory activity in mouse model of ovalbumin/Aspergillus-induced allergic asthma assessed as reduction in eosinophil counts in BALF at 20 umol/kg, ip administered 30 mins prior to allergen challenge and measured after 2 days post challenge. In kind it is functional, organism-based. The following applies: dose 20.0 µmol/kg, time 2.0 day.

Data set [6] has as its target T1, liver carboxylesterase. As to the kind of experiment: Drug metabolism in pH 7.5 HEPES buffer assessed as porcine liver esterase-mediated compound hydrolysis measured up to 72 hrs by HPLC analysis. In kind it is ADME. The following applies: pig, read-out: Drug degradation.
The target of data set [7] is Voltage-gated inwardly rectifying potassium channel KCNH2 (Homo sapiens, UniProt Q12809).
Voltage-gated inwardly rectifying potassium channel KCNH2, sequence (Q12809 whole entry): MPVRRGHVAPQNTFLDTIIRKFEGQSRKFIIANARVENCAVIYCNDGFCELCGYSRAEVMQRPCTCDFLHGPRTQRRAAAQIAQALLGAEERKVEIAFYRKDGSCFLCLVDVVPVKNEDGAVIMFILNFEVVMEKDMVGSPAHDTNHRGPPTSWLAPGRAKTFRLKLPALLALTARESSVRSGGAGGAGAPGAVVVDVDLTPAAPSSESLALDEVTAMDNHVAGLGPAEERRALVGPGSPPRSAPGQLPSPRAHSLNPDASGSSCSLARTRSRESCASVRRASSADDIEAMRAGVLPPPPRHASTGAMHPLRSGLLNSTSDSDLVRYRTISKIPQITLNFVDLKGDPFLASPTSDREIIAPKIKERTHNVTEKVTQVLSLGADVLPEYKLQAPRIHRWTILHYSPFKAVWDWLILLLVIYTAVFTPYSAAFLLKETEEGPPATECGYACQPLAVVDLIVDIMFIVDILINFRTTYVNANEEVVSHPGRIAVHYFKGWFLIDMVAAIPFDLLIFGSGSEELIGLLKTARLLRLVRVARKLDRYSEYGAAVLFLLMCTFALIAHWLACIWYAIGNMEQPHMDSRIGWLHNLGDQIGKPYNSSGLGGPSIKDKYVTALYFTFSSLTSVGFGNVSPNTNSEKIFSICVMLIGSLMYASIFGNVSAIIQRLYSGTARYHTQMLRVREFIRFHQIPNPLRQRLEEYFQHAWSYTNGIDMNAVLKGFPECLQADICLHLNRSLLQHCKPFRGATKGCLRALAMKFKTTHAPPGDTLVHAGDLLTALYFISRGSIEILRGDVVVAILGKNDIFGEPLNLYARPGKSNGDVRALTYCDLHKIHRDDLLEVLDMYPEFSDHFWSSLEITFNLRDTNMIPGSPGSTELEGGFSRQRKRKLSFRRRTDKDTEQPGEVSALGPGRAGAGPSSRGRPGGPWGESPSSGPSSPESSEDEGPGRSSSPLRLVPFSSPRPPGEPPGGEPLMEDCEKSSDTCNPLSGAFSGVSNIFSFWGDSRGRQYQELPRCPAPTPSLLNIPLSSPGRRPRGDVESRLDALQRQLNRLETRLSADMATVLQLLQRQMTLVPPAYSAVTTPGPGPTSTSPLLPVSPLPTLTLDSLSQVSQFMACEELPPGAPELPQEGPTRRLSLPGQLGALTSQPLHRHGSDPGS
The target in data set [8] is Delta-type opioid receptor (Homo sapiens, UniProt P41143). Nature of the data set: Binding affinity to DOR (unknown origin).
Delta-type opioid receptor, sequence (P41143 whole entry): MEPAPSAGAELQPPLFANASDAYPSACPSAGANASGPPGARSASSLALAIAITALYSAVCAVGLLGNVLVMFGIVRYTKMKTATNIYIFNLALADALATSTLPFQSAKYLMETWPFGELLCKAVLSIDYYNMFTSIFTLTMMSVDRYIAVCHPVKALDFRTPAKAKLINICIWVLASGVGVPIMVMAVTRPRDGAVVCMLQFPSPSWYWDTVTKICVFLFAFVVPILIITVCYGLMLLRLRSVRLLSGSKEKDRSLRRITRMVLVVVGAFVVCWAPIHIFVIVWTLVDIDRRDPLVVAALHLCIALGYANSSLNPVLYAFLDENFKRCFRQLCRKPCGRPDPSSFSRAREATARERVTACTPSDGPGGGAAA
The target in data set [9] is Sigma non-opioid intracellular receptor 1 (Homo sapiens, UniProt Q99720). As to the kind of experiment: Binding affinity to sigma 1 receptor (unknown origin).
Sigma non-opioid intracellular receptor 1, sequence (Q99720 whole entry): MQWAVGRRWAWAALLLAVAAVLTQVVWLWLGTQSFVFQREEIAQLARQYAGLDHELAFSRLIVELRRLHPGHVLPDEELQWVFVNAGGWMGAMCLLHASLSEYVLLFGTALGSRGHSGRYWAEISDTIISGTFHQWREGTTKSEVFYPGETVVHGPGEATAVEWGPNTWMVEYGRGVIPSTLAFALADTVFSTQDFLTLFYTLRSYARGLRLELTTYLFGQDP
The target in the next data set is T3, P2Y purinoceptor 14 (Homo sapiens, UniProt Q15391).
T3 sequence (Q15391 whole entry): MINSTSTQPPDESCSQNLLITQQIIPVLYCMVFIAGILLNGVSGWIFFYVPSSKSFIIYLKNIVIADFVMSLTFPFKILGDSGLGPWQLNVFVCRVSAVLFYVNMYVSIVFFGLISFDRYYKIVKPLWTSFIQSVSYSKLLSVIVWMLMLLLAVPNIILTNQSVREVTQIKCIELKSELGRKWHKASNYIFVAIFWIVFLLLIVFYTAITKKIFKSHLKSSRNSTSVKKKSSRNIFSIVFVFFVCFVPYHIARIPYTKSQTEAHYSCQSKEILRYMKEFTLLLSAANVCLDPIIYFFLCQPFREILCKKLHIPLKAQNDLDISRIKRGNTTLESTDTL
As to the kind of experiment: cell-based.

The target in data set [10] is T1, liver carboxylesterase. Nature of the data set: Drug metabolism in pH 7.5 HEPES buffer assessed as porcine liver esterase-mediated compound hydrolysis by measuring half life measured up to 120 mins by HPLC analysis. In kind it is ADME, tissue-based. The following applies: pig.
Data set [11] addresses T2, Sigma intracellular receptor 2. Nature of the data set: Inhibition of sigma 2 receptor (unknown origin) at 10 uM relative to control.
Data set [12] deals with T4, Alpha-2A adrenergic receptor (Homo sapiens, UniProt P08913).
T4 sequence (P08913 whole entry): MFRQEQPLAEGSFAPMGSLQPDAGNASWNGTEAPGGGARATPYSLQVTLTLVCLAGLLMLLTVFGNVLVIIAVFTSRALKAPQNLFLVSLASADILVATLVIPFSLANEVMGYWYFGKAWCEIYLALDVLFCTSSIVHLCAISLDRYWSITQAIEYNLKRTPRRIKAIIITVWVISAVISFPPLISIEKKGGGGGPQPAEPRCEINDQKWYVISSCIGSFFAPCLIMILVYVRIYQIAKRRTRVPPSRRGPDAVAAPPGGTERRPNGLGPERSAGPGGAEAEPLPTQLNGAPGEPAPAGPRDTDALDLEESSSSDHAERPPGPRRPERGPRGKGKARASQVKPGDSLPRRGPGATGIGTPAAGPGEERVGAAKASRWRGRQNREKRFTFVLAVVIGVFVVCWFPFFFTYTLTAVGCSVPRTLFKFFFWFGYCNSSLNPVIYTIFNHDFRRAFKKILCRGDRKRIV
As to the kind of experiment: Binding affinity to alpha2a (unknown origin).

Data set [13] concerns the target T5, Alpha-2B adrenergic receptor (Homo sapiens) (UniProt P18089).
T5 sequence (whole entry): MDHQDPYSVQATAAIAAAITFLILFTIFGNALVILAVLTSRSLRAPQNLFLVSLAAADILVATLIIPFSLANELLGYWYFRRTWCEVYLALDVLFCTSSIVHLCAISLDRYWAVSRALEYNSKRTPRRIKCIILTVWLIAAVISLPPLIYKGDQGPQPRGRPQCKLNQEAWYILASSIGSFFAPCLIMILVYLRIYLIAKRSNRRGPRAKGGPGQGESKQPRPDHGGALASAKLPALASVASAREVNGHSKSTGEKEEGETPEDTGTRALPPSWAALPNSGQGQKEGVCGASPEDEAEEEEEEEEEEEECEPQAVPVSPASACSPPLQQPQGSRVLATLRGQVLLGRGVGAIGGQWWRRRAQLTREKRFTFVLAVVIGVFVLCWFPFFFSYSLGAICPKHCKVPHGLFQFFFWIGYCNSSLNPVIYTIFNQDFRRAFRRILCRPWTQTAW
Nature of the data set: Inhibition of alpha2b (unknown origin) at 10 uM relative to control.

A further data set addresses D(1B) dopamine receptor (Homo sapiens, UniProt P21918). Nature of the data set: Binding affinity to D5 receptor (unknown origin).
Data set [14] deals with T6, Alpha-1B adrenergic receptor (Homo sapiens, UniProt P35368).
T6 sequence (P35368 whole entry): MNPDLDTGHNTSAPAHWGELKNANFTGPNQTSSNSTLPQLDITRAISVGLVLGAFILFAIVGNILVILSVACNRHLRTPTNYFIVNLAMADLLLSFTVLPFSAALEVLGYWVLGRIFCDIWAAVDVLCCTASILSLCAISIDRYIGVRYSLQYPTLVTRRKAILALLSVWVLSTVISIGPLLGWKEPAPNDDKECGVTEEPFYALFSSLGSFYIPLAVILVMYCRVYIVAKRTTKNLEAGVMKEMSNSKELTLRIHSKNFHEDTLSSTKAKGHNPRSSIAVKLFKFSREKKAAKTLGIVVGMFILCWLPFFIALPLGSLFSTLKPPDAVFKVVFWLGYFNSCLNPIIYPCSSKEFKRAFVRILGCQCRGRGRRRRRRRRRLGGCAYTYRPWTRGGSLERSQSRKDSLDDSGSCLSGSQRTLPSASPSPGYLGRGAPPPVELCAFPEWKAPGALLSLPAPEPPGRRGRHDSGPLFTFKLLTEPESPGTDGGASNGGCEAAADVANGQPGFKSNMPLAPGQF
Nature of the data set: Binding affinity to alpha1b (unknown origin).

For data set [15], the target named is 5-hydroxytryptamine receptor 1D (Homo sapiens) (UniProt P28221). As to the kind of experiment: Inhibition of 5HT1D (unknown origin) at 10 uM relative to control.
5-hydroxytryptamine receptor 1D (Homo sapiens), sequence (P28221 whole entry): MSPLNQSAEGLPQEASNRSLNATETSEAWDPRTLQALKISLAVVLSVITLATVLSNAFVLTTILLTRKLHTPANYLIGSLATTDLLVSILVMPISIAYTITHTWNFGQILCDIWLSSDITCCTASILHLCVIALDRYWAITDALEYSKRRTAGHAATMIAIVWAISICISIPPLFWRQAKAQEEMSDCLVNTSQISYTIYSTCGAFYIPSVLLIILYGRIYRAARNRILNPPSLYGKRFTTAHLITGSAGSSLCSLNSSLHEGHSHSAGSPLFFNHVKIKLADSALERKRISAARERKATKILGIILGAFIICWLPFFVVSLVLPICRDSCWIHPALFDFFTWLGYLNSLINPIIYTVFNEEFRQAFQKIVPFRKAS
The next data set addresses Histamine H4 receptor (Homo sapiens, UniProt Q9H3N8). Nature of the data set: Binding affinity to H4 receptor (unknown origin).
A further data set concerns the target D(1A) dopamine receptor (Homo sapiens, UniProt P21728). Nature of the data set: Binding affinity to D1 receptor (unknown origin).

≈ marks a conversion by molar mass, not a printed value. Where “and” joins values, the source holds several entries; their conditions need not be identical. Equal entries are not always repeated. Calls of active or inactive are those of the source.

One may read the solubility as the dissolved amount per volume that the medium holds. As usually defined, the Ki is the dissociation constant of the complex between target and ligand, obtained from inhibition or displacement. The half-life is the time needed for the level to fall by half in the phase considered. What is called EC50 is the midpoint of the concentration-response curve. Read a high EC50 as lower potency in that assay. Broadly, the IC50 is the point on the concentration scale where inhibition reaches its midpoint. As a reminder, the inhibition is the relative decrease from the control value, in per cent.

D(1B) dopamine receptor, sequence (P21918 whole entry): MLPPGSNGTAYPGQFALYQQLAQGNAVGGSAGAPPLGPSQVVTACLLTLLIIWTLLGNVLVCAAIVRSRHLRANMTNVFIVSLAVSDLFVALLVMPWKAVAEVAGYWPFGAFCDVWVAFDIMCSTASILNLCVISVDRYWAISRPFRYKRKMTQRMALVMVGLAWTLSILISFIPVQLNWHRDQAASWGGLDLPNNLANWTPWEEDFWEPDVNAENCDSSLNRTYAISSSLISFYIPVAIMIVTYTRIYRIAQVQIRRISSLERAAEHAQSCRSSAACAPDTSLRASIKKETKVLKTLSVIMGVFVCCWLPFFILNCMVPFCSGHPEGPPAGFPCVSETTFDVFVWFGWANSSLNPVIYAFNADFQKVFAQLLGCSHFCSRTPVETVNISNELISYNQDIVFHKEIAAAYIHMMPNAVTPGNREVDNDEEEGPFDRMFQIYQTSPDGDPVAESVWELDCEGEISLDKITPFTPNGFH
Histamine H1 receptor, sequence (P35367 whole entry): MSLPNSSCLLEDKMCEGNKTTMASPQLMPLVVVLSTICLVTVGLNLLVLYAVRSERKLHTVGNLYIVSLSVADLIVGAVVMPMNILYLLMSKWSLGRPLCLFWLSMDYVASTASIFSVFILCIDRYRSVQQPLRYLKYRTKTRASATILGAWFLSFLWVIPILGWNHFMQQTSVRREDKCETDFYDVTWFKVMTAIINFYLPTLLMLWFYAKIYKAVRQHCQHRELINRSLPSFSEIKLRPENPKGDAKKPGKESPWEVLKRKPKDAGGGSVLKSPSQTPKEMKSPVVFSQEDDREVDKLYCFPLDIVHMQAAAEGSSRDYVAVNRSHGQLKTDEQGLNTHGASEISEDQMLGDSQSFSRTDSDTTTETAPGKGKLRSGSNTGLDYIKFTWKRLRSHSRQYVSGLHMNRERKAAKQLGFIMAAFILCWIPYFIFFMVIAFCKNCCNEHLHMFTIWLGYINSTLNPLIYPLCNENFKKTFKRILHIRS
Histamine H4 receptor, sequence (Q9H3N8 whole entry): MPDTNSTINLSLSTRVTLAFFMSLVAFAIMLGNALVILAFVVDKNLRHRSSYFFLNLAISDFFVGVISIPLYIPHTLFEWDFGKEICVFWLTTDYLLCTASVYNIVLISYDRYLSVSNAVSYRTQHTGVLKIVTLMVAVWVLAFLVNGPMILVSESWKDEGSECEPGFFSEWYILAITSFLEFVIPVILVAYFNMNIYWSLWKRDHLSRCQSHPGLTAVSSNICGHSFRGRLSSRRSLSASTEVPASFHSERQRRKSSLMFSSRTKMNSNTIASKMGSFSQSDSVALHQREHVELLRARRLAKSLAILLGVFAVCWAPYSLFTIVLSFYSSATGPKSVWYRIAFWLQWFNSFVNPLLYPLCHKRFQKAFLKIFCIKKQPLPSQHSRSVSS
D(1A) dopamine receptor, sequence (P21728 whole entry): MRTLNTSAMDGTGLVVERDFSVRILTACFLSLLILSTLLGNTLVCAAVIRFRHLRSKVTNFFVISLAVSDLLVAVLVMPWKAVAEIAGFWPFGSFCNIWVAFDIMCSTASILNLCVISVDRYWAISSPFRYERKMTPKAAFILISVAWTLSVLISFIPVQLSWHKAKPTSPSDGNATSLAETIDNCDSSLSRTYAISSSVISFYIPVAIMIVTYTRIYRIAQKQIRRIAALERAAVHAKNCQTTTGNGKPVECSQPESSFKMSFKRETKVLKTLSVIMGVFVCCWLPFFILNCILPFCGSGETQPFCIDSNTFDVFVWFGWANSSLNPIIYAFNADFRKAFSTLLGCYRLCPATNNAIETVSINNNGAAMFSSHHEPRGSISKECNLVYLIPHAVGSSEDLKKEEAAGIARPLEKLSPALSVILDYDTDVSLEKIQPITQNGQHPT

Consider `O=C(O)c1cc(-c2ccc(-c3cc(CO)on3)cc2)cc(-n2cc(-c3ccc(C(F)(F)F)cc3)nn2)c1`, for which the solubility in data set [1] is 3.72 ug ml-1 and 7.34 uM; in data set [2], 0.6 µg/mL (≈ 1.18 µM). Moreover, the Ki on Translocator protein amounted to 0.751 µM; on Histamine H1 receptor, 2.65 µM.

In the case of `CC(=O)N1CCC(c2ccc(-c3cc(C(=O)OCC(=O)N(C)C)cc4cc(-c5ccc(C(F)(F)F)cc5)ccc34)cc2)CC1`, the half-life at liver carboxylesterase [3] was more than 72 h. In [4], the Stabilty entry is recorded as “Stable”. For the same molecule, in data set [5], the affinity corresponds to a Ki of 0.59 µM. Further, in the data set with Mus musculus, the outcome was Active. Further, at liver carboxylesterase [6], the metabolised at 72 h amounted to 27.2%.

`O=C(O)c1cc(-c2ccc(C3CCNCC3)cc2)c2ccc(-c3ccc(C(F)(F)F)cc3)cc2c1` [PPTN]: the EC50 in data set [7] is more than 30 µM. The result with Mus musculus was Active.

For `NC(=O)Cc1ccc(-c2cc(C(=O)O)cc(-n3cc(-c4ccc(C(F)(F)F)cc4)nn3)c2)cc1`, the Ki in data set [5] was 0.931 µM; at Translocator protein it was 2.81 µM.

For the molecule `O=C(O)c1cc(-c2ccc(NC(=O)C3CCNCC3)cc2)cc(-n2cc(-c3ccc(C(F)(F)F)cc3)nn2)c1`, the results for the Ki in data set [8] and in [9] were 2 µM and 2.33 µM, respectively.

In the case of `CC(C)(C)OC(=O)NC1(c2ccc(-c3cc(C(=O)O)cc(-n4cc(-c5ccc(C(F)(F)F)cc5)nn4)c3)cc2)CCC1`, the IC50 at P2Y purinoceptor 14 was more than 10 µM.

On to `CN(C)C(=O)COC(=O)c1cc(-c2ccc(C3CCNCC3)cc2)cc(-n2cc(-c3ccc(C(F)(F)F)cc3)nn2)c1`, for which, on liver carboxylesterase [10], the half-life came to 0.337 h. Also, the Stabilty result in data set [4] is on record as “Stable”.

On P2Y purinoceptor 14, `O=C(O)c1cc(-c2ccc(Br)cc2)cc(-n2cc(-c3ccc(C(F)(F)F)cc3)nn2)c1` returned an IC50 of more than 10 µM.

Turning to `O=C(O)c1cc(-c2ccc(-c3nnn[nH]3)cc2)cc(-n2cc(-c3ccc(C(F)(F)F)cc3)nn2)c1`, the Ki in [5] is 2.26 µM; in data set [8], 3.3 µM.

Consider `CN(C)C(=O)COC(=O)c1cc(-c2ccc(-c3cc(CO)on3)cc2)c2ccc(-c3ccc(C(F)(F)F)cc3)cc2c1`, for which the half-life on liver carboxylesterase [3] is more than 72 h. Moreover, the Stabilty entry in data set [4] is “Stable”. The result in the data set on Mus musculus was Active. Moreover, the metabolised at 72 h at liver carboxylesterase [6] was determined as 32.6%.

As to `O=CN1CCC(c2ccc(-c3cc(C(=O)O)cc4cc(-c5ccc(C(F)(F)F)cc5)ccc34)cc2)CC1`, the results for the inhibition in data set [11], in data set [13] and in [15] were 84%, 82% and 81%, respectively. In addition, the Ki in data set [12] was determined as 3.97 µM; on D(1B) dopamine receptor it was 1.44 µM; in data set [14], 2.65 µM; on Histamine H4 receptor, 1.7 µM; on D(1A) dopamine receptor, 0.52 µM; in data set [9] it was 0.759 µM.
